Publication PMC6017000, “Distribution Assessments of Coumarins from Angelicae Pubescentis Radix in Rat Cerebrospinal Fluid and Brain by Liquid Chromatography Tandem Mass Spectrometry Analysis” (Molecules : A Journal of Synthetic Chemistry and Natural …, 2018)

How the values were obtained:
[1] = Stability of QC samples in aCSF (freeze-thaw, room temperature); assay type: physicochemical; conditions: percentage remaining, n = 5; for Stability room temperature: room temperature 24 h; for Stability Freeze-thaw: three freeze-thaw cycles
[2] = Rat brain distribution after oral administration of APRE (UPLC-MS/MS); conditions: for AUC0→t / AUC0→∞ / CLz/F / Vz/F: rat brain, oral APRE 4 g/kg, mean ± SD, n = 6; for Tmax / half-life / Kp / log BBexpt.: rat; for Tmax / half-life: brain; for Tmax / half-life / Kp: po, 4 g/kg; for Kp: brain/plasma; for log BBexpt.: log (AUC0→∞/brain/AUC0→∞/plasma), oral APRE
Method: Each weighed brain sample was homogenized with a 2-fold volume of normal saline solution. IS solution (10 μL, 200 ng/mL) was added to 300 μL of the homogenate. The mixture was then extracted with a 3-fold volume of ethyl acetate. The mixture was vortexed for 1 min and centrifuged at 16,000× g for 10 min. The supernatant was transferred out and dried under a gentle constant flow of nitrogen. The residue was then dissolved with 100 μL of MeOH and ultrasonically (power 250 W, frequency 40 KHz) extracted for 10 min. After centrifugation at 16,000× g for 10 min, the supernatant was drawn out into a clean vial, and 5 μL of each were injected into the UPLC–MS/MS system for analysis.
The UPLC-MS/MS system consisted of a Shimadzu Nexera UPLC instrument connected to a Shimadzu LCMS-8050 mass spectrometer via the electrospray ionization interface (Shimadzu Corp., Kyoto, Japan). Samples were separated on an ACQUITY UPLC BEH RP18 column (2.1 × 100 mm, 1.7 µm, Waters, Milford, MA, USA) equipped with a BEH RP18 guard column (2.1 × 5 mm, 1.7 µm, Waters, Milford, MA, USA). The column temperature was 30 °C, and the flow rate was 0.4 mL/min. The sample injection volume was 5 µL. The mobile phases consisted of 0.1% (v/v) formic acid in water (A) and ACN (B). The LC gradient elution program and mass working parameters were the same as our previous report [6]. […] The precursor ion, product ion, Q1, Q3, CE and DT were optimized.
(§1) The time schedule included 9 time-points, and six rats were sampled at each time-point. The rats were fasted overnight with free access to water before the experiment. APRE was suspended with the normal saline and orally administered to the rats at a single dose of 4 g/kg. The animals had free access to water during the experiment.
Cardiac perfusion was carried out quickly with physiological saline after CSF collection at each time-point. The rat brains were separated, weighed and then stored at −80 °C until treatment.
(§2) Results were expressed as the mean ± standard deviation (SD). The UPLC-MS/MS data were processed with Labsolutions 5.65 software (Shimadzu Corp., Kyoto, Japan). The pharmacokinetic parameters were calculated with the Drug and Statistics 2.0 software (Mathematical Pharmacology Professional Committee of China, Shanghai, China).

[3] = Rat CSF distribution after oral administration of APRE (UPLC-MS/MS); conditions: for total amount percentage of CSF/plasma: (0.48 × AUC0→∞/CSF)/(16 × AUC0→∞/plasma), oral APRE; for total amount percentage of CSF/plasma / AUC(0-inf) / AUC(0-t) / Cmax / Tmax / half-life: rat; for AUC(0-inf) / AUC(0-t) / Cmax / Tmax / half-life: CSF, po, 4 g/kg; for MRM response in CSF: rat CSF after oral APRE
Method: Aliquots of 50 μL CSF samples with IS (10 μL, 200 ng/mL) were extracted with 600 μL ethyl acetate.
The UPLC-MS/MS system consisted of a Shimadzu Nexera UPLC instrument connected to a Shimadzu LCMS-8050 mass spectrometer via the electrospray ionization interface (Shimadzu Corp., Kyoto, Japan). Samples were separated on an ACQUITY UPLC BEH RP18 column (2.1 × 100 mm, 1.7 µm, Waters, Milford, MA, USA) equipped with a BEH RP18 guard column (2.1 × 5 mm, 1.7 µm, Waters, Milford, MA, USA). The column temperature was 30 °C, and the flow rate was 0.4 mL/min. The sample injection volume was 5 µL. The mobile phases consisted of 0.1% (v/v) formic acid in water (A) and ACN (B). […] The precursor ion, product ion, Q1, Q3, CE and DT were optimized.
as §1
Rats were anesthetized by an intraperitoneal dose of chloral hydrate (350 mg/kg) at 0.25, 0.5, 1, 1.5, 2, 4, 6, 8, 12 h after oral administration of APRE. A dorsal midline cutaneous incision was made, and the muscle at the craniocervical junction was bluntly dissected to expose the atlanto-occipital membrane. The cisterna magna was punctured with a thin syringe needle, and a microinjector connected with the needle was used to collect the interior CSF carefully [27]. Clear CSF was transferred to a clean microtube and frozen at −80 °C until further use. Blood contaminated samples were excluded.
as §2

[4] = Stability of QC samples in rat brain homogenate (freeze-thaw, room temperature); assay type: physicochemical; conditions: percentage remaining, n = 5; for Stability room temperature: room temperature 24 h; for Stability Freeze-thaw: three freeze-thaw cycles
[5] = parameters: method as in PMID 28654868; conditions: rat plasma, oral APRE; cited from earlier work

SMILES | AUC0→t [2] | AUC0→∞ [2] | CLz/F [2] [g/h/kg] | Vz/F [2] [g/kg] | Tmax [2] [h] | half-life [2] [h] | Kp [2] | AUC(0-inf) [3] [ng·h/mL] | AUC(0-t) [3] [ng·h/mL] | Cmax [3] [ng/mL] | Tmax [3] [h] | half-life [3] [h] | Stability room temperature ([4]; rat brain QC 80 ng/mL) [%] | Stability Freeze-thaw ([4]; rat brain QC 80 ng/mL) [%] | Stability room temperature ([4]; rat brain QC 160 ng/mL) [%] | Stability Freeze-thaw ([4]; rat brain QC 160 ng/mL) [%] | Stability room temperature ([1]; aCSF QC 5 ng/mL) [%] | Stability Freeze-thaw ([1]; aCSF QC 5 ng/mL) [%] | Stability room temperature ([4]; rat brain QC 5 ng/mL) [%] | Stability Freeze-thaw ([4]; rat brain QC 5 ng/mL) [%] | other results
O=c1ccc2cc3ccoc3cc2o1 [Compound 1, psoralen] | 351.63 ± 65.06 µg·h/kg | 371.95 ± 69.76 µg·h/kg | 2.88 ± 0.58 | 8.86 ± 3.08 | 0.33 ± 0.13 | 2.15 ± 0.67 | 0.56 | 51.3 ± 17.5 | 20.4 ± 6.16 | 4.49 ± 1.05 | 4.67 ± 1.63 | 3.52 ± 2.04 | 99.53±12.87 | 96.22±7.77 | 96.99±3.28 | 96.30±8.22 |  |  |  |  | Stability room temperature ([1]; aCSF QC 10 ng/mL): 97.19±5.40%; Stability Freeze-thaw ([1]; aCSF QC 10 ng/mL): 96.14±6.21%; Stability room temperature ([1]; aCSF QC 40 ng/mL): 98.36±3.57%; Stability Freeze-thaw ([1]; aCSF QC 40 ng/mL): 96.98±5.79%; Stability room temperature ([1]; aCSF QC 80 ng/mL): 94.12±6.94%; Stability Freeze-thaw ([1]; aCSF QC 80 ng/mL): 86.27±13.45%; total amount percentage of CSF/plasma [3]: greater than 1%; Stability room temperature ([4]; rat brain QC 10 ng/mL): 101.36±7.46%; Stability Freeze-thaw ([4]; rat brain QC 10 ng/mL): 97.11±8.58%
COc1c2ccoc2cc2oc(=O)ccc12 [Compound 3, bergapten] | 418.20 ± 93.60 µg·h/kg | 449.85 ± 97.52 µg·h/kg | 3.22 ± 0.85 | 10.76 ± 4.73 | 1.21 ± 1.53 | 2.34 ± 1.04 | 0.08 | 41.3 ± 5.77 | 27.1 ± 2.26 | 3.95 ± 0.24 | 1.46 ± 0.84 | 6.72 ± 1.95 | 86.01±3.16 | 85.30±8.42 | 86.84±6.63 | 90.70±9.46 | 106.76±8.57 | 92.34±7.48 | 88.02±2.73 | 89.97±6.29 | Stability room temperature ([1]; aCSF QC 40 ng/mL): 94.61±4.23%; Stability Freeze-thaw ([1]; aCSF QC 40 ng/mL): 93.24±6.30%; Stability room temperature ([1]; aCSF QC 80 ng/mL): 99.54±7.55%; Stability Freeze-thaw ([1]; aCSF QC 80 ng/mL): 97.23±5.17%
CC(C)(O)[C@@H]1Cc2c(ccc3ccc(=O)oc23)O1 [Compound 5, columbianetin] | 13,438.17 ± 2016.06 µg/kg·h | 16,664.04 ± 3662.67 µg/kg·h | 0.11 ± 0.02 | 0.57 ± 0.39 | 4 ± 1.79 | 3.92 ± 3.33 | 0.08 | 4140 ± 602 | 3370 ± 604 | 485 ± 91.4 | 5 ± 1.1 | 4.06 ± 2.42 |  |  |  |  | 97.23±8.25 | 96.35±9.69 | 97.88±10.06 | 105.83±7.01 | Stability room temperature ([1]; aCSF QC 320 ng/mL): 93.93±2.94%; Stability Freeze-thaw ([1]; aCSF QC 320 ng/mL): 93.46±8.56%; Stability room temperature ([1]; aCSF QC 640 ng/mL): 99.45±9.62%; Stability Freeze-thaw ([1]; aCSF QC 640 ng/mL): 93.87±4.82%; plasma Cmax [5]: 2240.32 ± 1031.92 ng/mL; Stability room temperature ([4]; rat brain QC 1200 ng/mL): 89.46±3.10%; Stability Freeze-thaw ([4]; rat brain QC 1200 ng/mL): 91.69±3.42%; Stability room temperature ([4]; rat brain QC 2400 ng/mL): 91.21±6.60%; Stability Freeze-thaw ([4]; rat brain QC 2400 ng/mL): 87.85±9.09%
C/C=C(/C)C(=O)OC(C)(C)[C@@H]1Cc2c(ccc3ccc(=O)oc23)O1 [Compound 7, columbianadin] |  |  |  |  |  |  |  |  |  |  |  |  | 92.73±3.53 | 94.79±6.28 | 91.16±4.37 | 90.93±4.84 |  |  |  |  | time after oral administration within which detected in brain ([2]; rat brain after oral APRE, MRM response under LLOQ at following time points): ≤ 4 h; MRM response in CSF [3]: under LLOQ; Stability room temperature ([4]; rat brain QC 10 ng/mL): 96.82±4.84%; Stability Freeze-thaw ([4]; rat brain QC 10 ng/mL): 101.64±6.63%
CC(C)(O)[C@H](O)COc1c2ccoc2cc2oc(=O)ccc12 [Compound 8, oxypeucedanin hydrate] | 313.39 ± 59.25 µg·h/kg | 397.36 ± 66.83 µg·h/kg | 2.04 ± 0.34 | 14.45 ± 3.95 | 0.96 ± 0.86 | 4.91 ± 0.91 |  | 73.6 ± 11.8 | 54 ± 8.2 | 7.47 ± 1.69 | 2 ± 1.14 | 6.32 ± 1.95 | 96.02±6.30 | 94.94±10.27 | 97.99±6.44 | 102.42±7.10 | 96.96±3.22 | 97.57±5.59 | 97.72±9.35 | 96.57±11.87 | Stability room temperature ([1]; aCSF QC 40 ng/mL): 95.09±3.26%; Stability Freeze-thaw ([1]; aCSF QC 40 ng/mL): 94.73±7.34%; Stability room temperature ([1]; aCSF QC 80 ng/mL): 103.37±5.33%; Stability Freeze-thaw ([1]; aCSF QC 80 ng/mL): 95.96±5.37%; log BBexpt. [2]: −0.16
COc1ccc2ccc(=O)oc2c1CC=C(C)C [Compound 10, osthole] | 1327.91 ± 341.99 µg·h/kg | 2105.63 ± 1100.15 µg·h/kg | 13.96 ± 7.04 | 60.18 ± 25.11 | 0.35 ± 0.14 | 5.36 ± 2.15 | 0.15 | 30.5 ± 1.53 | 27.7 ± 2.88 | 4.31 ± 1.49 | 2.83 ± 2.84 | 3.19 ± 1.16 | 101.64±8.78 | 98.42±10.02 | 96.43±4.95 | 98.13±6.85 | 95.92±3.20 | 94.43±7.49 | 99.12±3.06 | 95.53±4.36 | Stability room temperature ([1]; aCSF QC 40 ng/mL): 94.93±5.05%; Stability Freeze-thaw ([1]; aCSF QC 40 ng/mL): 95.90±8.12%; Stability room temperature ([1]; aCSF QC 80 ng/mL): 93.50±6.38%; Stability Freeze-thaw ([1]; aCSF QC 80 ng/mL): 97.71±2.91%
COc1ccc2ccc(=O)oc2c1CC(O)C(C)(C)O (centres unmarked) [Compound 11, Meranzin hydrate] | 1752.16 ± 249.82 µg·h/kg | 1948.10 ± 305.84 µg·h/kg | 0.86 ± 0.13 | 4.46 ± 1.60 | 1.29 ± 1.5 | 3.64 ± 1.4 |  | 754 ± 142 | 676 ± 108 | 129 ± 20.2 | 2.17 ± 0.98 | 3.37 ± 0.75 |  |  |  |  | 92.02±3.40 | 96.16±10.07 | 97.21±8.86 | 94.71±4.63 | Stability room temperature ([1]; aCSF QC 120 ng/mL): 99.09±5.56%; Stability Freeze-thaw ([1]; aCSF QC 120 ng/mL): 95.58±7.24%; Stability room temperature ([1]; aCSF QC 240 ng/mL): 103.10±9.99%; Stability Freeze-thaw ([1]; aCSF QC 240 ng/mL): 94.40±4.03%; log BBexpt. [2]: −0.10; Stability room temperature ([4]; rat brain QC 200 ng/mL): 96.58±7.80%; Stability Freeze-thaw ([4]; rat brain QC 200 ng/mL): 97.28±10.13%; Stability room temperature ([4]; rat brain QC 400 ng/mL): 95.82±9.16%; Stability Freeze-thaw ([4]; rat brain QC 400 ng/mL): 104.50±7.46%
CC(C)(O)[C@H]1Cc2cc3ccc(=O)oc3cc2O1 [Compound 12, nodakenetin] | 933.83 ± 66.51 µg·h/kg | 1560.07 ± 730.91 µg·h/kg | 0.779 ± 0.26 | 6.30 ± 2.22 | 5.33 ± 1.03 | 6.27 ± 3.19 | 0.01 | 625 ± 249 | 331 ± 43.2 | 43.5 ± 5.98 | 6.33 ± 0.82 | 6.69 ± 2.25 |  |  |  |  | 102.33±8.37 | 101.36±5.89 | 94.83±5.41 | 98.18±2.46 | Stability room temperature ([1]; aCSF QC 120 ng/mL): 101.14±5.08%; Stability Freeze-thaw ([1]; aCSF QC 120 ng/mL): 92.78±5.37%; Stability room temperature ([1]; aCSF QC 240 ng/mL): 99.91±7.69%; Stability Freeze-thaw ([1]; aCSF QC 240 ng/mL): 95.63±4.23%; total amount percentage of CSF/plasma [3]: greater than 1%; Stability room temperature ([4]; rat brain QC 200 ng/mL): 97.69±5.38%; Stability Freeze-thaw ([4]; rat brain QC 200 ng/mL): 101.08±9.25%; Stability room temperature ([4]; rat brain QC 400 ng/mL): 95.56±2.64%
O=c1ccc2c(O)c3ccoc3cc2o1 [bergaptol] |  |  |  |  |  |  |  |  |  |  |  |  |  |  |  |  |  |  |  |  | MRM response in brain ([2]; rat brain after oral APRE): under LLOQ; MRM response in CSF [3]: under LLOQ
O=c1ccc2ccc(O)cc2o1 [umbelliferone] |  |  |  |  |  |  |  |  |  |  |  |  |  |  |  |  |  |  |  |  | MRM response in brain ([2]; rat brain after oral APRE): under LLOQ; MRM response in CSF [3]: under LLOQ
